Measured values from patent US20230159489A1, “PHD INHIBITOR COMPOUNDS, COMPOSITIONS, AND USE” (Akebia Therapeutics, Inc., priority 2020, published 2023).
Structures can show the parent of a compound that is named as a salt.

Columns and labels:
full-length human PHD3 = molecular target: T1, full-length human PHD3 (Homo sapiens, UniProt Q9H6Z9); test: TR-FRET assay, enzymatic IC50 against PHD3; assay type: biochemical; further: 35 nM PHD3
T1 construct: 6-His (N); purchased Active Motif 81033; host or cells: E. coli
T1 sequence (Q9H6Z9 whole entry): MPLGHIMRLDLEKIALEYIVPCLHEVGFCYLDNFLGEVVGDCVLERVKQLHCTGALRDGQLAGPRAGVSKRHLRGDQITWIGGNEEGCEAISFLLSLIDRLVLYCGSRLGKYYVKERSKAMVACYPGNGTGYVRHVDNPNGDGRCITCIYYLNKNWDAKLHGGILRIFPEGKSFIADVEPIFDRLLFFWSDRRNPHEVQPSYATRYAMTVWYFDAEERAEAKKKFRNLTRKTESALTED
Source text: Recombinant human PHD3 protein (molecular weight 31.1 kDa) was purchased from Active Motif (Carlsbad, Calif., USA). It was expressed in E. coli as the full-length protein (NCBI accession number NP_071356.1) with an N-terminal 6-His tag (catalog #81033, Lot #24417001).

full-length human PHD1 = molecular target: T2, full-length human PHD1 (Homo sapiens, UniProt Q96KS0); test: TR-FRET assay, enzymatic IC50 against PHD1; assay type: biochemical; further: 15 nM PHD1
T2 construct: FLAG (N); purchased Active Motif 81064; host or cells: baculovirus expression system
T2 sequence (Q96KS0 whole entry): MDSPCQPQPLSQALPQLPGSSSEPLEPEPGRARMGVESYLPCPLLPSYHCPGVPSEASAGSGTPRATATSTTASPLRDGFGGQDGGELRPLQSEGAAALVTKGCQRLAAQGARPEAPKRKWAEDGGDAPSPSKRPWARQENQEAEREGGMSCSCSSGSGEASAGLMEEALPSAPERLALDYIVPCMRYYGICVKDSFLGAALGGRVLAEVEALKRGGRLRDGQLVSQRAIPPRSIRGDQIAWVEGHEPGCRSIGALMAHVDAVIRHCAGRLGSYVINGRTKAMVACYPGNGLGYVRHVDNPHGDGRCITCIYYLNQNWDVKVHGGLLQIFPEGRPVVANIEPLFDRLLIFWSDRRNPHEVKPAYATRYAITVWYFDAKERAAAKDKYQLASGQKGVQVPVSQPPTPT
Source text: PHD1 was expressed in a baculovirus expression system as the full-length protein (NCBI accession number NP_542770.2) with an N-terminal FLAG tag (molecular weight 44.9 kDa).

full-length human PHD2 = full-length human PHD2 (Homo sapiens, UniProt Q9GZT9); test: TR-FRET assay, enzymatic IC50 against PHD2
Sequence of full-length human PHD2 (Q9GZT9 whole entry): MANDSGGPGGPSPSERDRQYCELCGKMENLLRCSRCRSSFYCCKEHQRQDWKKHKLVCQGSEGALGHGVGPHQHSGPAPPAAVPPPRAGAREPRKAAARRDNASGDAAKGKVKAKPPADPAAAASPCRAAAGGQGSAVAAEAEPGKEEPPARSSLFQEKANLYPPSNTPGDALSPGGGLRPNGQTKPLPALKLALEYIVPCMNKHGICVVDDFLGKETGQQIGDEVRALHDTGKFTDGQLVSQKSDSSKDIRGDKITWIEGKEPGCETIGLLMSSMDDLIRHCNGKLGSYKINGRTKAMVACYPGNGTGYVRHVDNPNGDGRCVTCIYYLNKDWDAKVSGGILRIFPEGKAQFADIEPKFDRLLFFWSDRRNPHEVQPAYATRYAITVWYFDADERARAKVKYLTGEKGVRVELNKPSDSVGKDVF

Compound	IC50 (full-length human PHD3) [nM]	IC50 (full-length human PHD1) [nM]	IC50 (full-length human PHD2) [nM]
Cc1nn(-c2ccc([S@@](=N)(=O)C3CC3)cn2)c(O)c1-c1ccc(C#N)cc1 [Compound 56, (S)-4-(1-(5-(cyclopropanesulfonimidoyl)pyridin-2-yl)-5-hydroxy-3-methyl-1H-pyrazol-4-yl)benzonitrile]	< 100	< 100	< 100
Cc1nn(-c2ccc([S+](C)[O-])cn2)c(O)c1-c1ccc(C#N)cc1 (centres unmarked) [Compound 12, 4-(5-hydroxy-3-methyl-1-(5-(methylsulfinyl)pyridin-2-yl)-1H-pyrazol-4-yl)benzonitrile]	< 100	< 100	< 100
Cc1nn(-c2ccc(C(=O)NS(C)(=O)=O)cn2)c(O)c1-c1ccc(C#N)cc1 [Compound 27, 6-(4-(4-cyanophenyl)-5-hydroxy-3-methyl-1H-pyrazol-1-yl)-N-(methylsulfonyl)nicotinamide]	< 100	< 100	< 100
Cc1nn(-c2ccc(S(=N)(=O)C3CCCC3)cn2)c(O)c1-c1ccc(C#N)cc1 (centres unmarked) [Compound 35, 4-(1-(5-(cyclopentanesulfonimidoyl)pyridin-2-yl)-5-hydroxy-3-methyl-1H-pyrazol-4-yl)benzonitrile]	< 100	< 100	< 100
Cc1nn(-c2ccc(S(N)(=O)=O)cn2)c(O)c1-c1ccc(C#N)cc1 [Compound 11, 6-(4-(4-cyanophenyl)-5-hydroxy-3-methyl-1H-pyrazol-1-yl)pyridine-3-sulfonamide]	< 100	< 100	< 100
Cc1nn(-c2ccc(S(C)(=N)=O)cn2)c(O)c1-c1ccc(C#N)cc1 (centres unmarked) [Compound 13, 4-(5-hydroxy-3-methyl-1-(5-(S-methylsulfonimidoyl)pyridin-2-yl)-1H-pyrazol-4-yl)benzonitrile]	100 to 1000	< 100	< 100
Cc1nn(-c2ccc(S(C)(=O)=O)cn2)c(O)c1-c1ccc(C#N)cn1 [Compound 44, 6-(5-hydroxy-3-methyl-1-(5-(methylsulfonyl)pyridin-2-yl)-1H-pyrazol-4-yl)nicotinonitrile]	1000 to 10000	100 to 1000	100 to 1000
CS(=O)(=O)c1ccc(-n2nc(C3CC3)c(-c3ccc(C#N)cc3)c2O)nc1 [Compound 5, 4-(3-cyclopropyl-5-hydroxy-1-(5-(methylsulfonyl)pyridin-2-yl)-1H-pyrazol-4-yl) benzonitrile]	> 10000	100 to 1000	1000 to 10000
Cc1nn(-c2ccc(S(=O)(=O)c3ccccc3)cn2)c(O)c1-c1ccc(C#N)cc1 [Compound 8, 4-(5-hydroxy-3-methyl-1-(5-(phenylsulfonyl)pyridin-2-yl)-1H-pyrazol-4-yl)benzonitrile]	100 to 1000	< 100	< 100
Cc1nn(-c2ccc(S(=N)(=O)C3CCC3)cn2)c(O)c1-c1ccc(C#N)cc1 (centres unmarked) [Compound 34, 4-(1-(5-(cyclobutanesulfonimidoyl)pyridin-2-yl)-5-hydroxy-3-methyl-1H-pyrazol-4-yl)benzonitrile]	< 100	< 100	< 100
Cc1nn(-c2ccc([S@](=N)(=O)C3CC3)cn2)c(O)c1-c1ccc(Cl)cc1 [Compound 66, (R)-(6-(4-(4-chlorophenyl)-5-hydroxy-3-methyl-1H-pyrazol-1-yl)pyridin-3-yl)(cyclopropyl)(imino)-λ^6-sulfanone]	–	< 100	< 100
CC(=O)NS(=O)(=O)c1ccc(-n2nc(C)c(-c3ccc(C#N)cc3)c2O)nc1 [Compound 29, N-((6-(4-(4-cyanophenyl)-5-hydroxy-3-methyl-1H-pyrazol-1-yl)pyridin-3-yl)sulfonyl)acetamide]	–	< 100	< 100
Cc1nn(-c2ccc(C(=O)NS(C)(=O)=O)cn2)c(O)c1-c1ccc(Cl)cc1 [Compound 28, 6-(4-(4-chlorophenyl)-5-hydroxy-3-methyl-1H-pyrazol-1-yl)-N-(methylsulfonyl)nicotinamide]	–	< 100	100 to 1000
Cc1cc(-n2nc(C)c(-c3ccc(C#N)cc3)c2O)ncc1S(C)(=N)=O (centres unmarked) [Compound 40, 4-(5-hydroxy-3-methyl-1-(4-methyl-5-(S-methylsulfonimidoyl)pyridin-2-yl)-1H-pyrazol-4-yl)benzonitrile]	–	< 100	< 100
Cc1nc(-n2nc(C)c(-c3ccc(C#N)cc3)c2O)ccc1S(C)(=O)=O [Compound 45, 4-(5-hydroxy-3-methyl-1-(6-methyl-5-(methylsulfonyl)pyridin-2-yl)-1H-pyrazol-4-yl)benzonitrile]	–	1000 to 10000	1000 to 10000
CNS(=N)(=O)c1ccc(-n2nc(C)c(-c3ccc(C#N)cc3)c2O)nc1 (centres unmarked) [Compound 26, 6-(4-(4-cyanophenyl)-5-hydroxy-3-methyl-1H-pyrazol-1-yl)-N-methylpyridine-3-sulfonimidamide]	–	< 100	< 100
Cc1nn(-c2ccc(-c3ncc(-c4ccccc4)s3)cn2)c(O)c1-c1ccc(C#N)cc1 [Compound 61, 4-(5-Hydroxy-3-methyl-1-(5-(5-phenylthiazol-2-yl)pyridin-2-yl)-1H-pyrazol-4-yl)benzonitrile]	–	< 100	> 10000
Cc1cc(-n2nc(C)c(-c3ccc(C#N)cc3)c2O)ncc1[S@@](=N)(=O)C1CC1 [Compound 68, (S)-4-(1-(5-(cyclopropanesulfonimidoyl)-4-methylpyridin-2-yl)-5-hydroxy-3-methyl-1H-pyrazol-4-yl)benzonitrile]	–	< 100	< 100
Cc1nn(-c2ccc([S@](C)(=N)=O)cn2)c(O)c1-c1ccc(C#N)cc1 [Compound 17, (R)-4-(5-hydroxy-3-methyl-1-(5-(S-methylsulfonimidoyl)pyridin-2-yl)-1H-pyrazol-4-yl)benzonitrile]	–	< 100	< 100
Cc1nn(-c2ccc(NS(C)(=O)=O)cn2)c(O)c1-c1ccc(Cl)cc1 [Compound 67, N-(6-(4-(4-chlorophenyl)-5-hydroxy-3-methyl-1H-pyrazol-1-yl)pyridin-3-yl)methanesulfonamide]	–	< 100	< 100

Continued, values first:

IC50 (full-length human PHD3) [nM]	IC50 (full-length human PHD1) [nM]	IC50 (full-length human PHD2) [nM]	Compound
100 to 1000	< 100	< 100	CCC(=O)Nc1ccc(-n2nc(C)c(-c3ccc(C#N)cc3)c2O)nc1 [Compound 9, N-(6-(4-(4-cyanophenyl)-5-hydroxy-3-methyl-1H-pyrazol-1-yl)pyridin-3-yl)propionamide]
< 100	< 100	< 100	Cc1nn(-c2ccc(NS(C)(=O)=O)cn2)c(O)c1-c1ccc(C#N)cc1 [Compound 6, N-(6-(4-(4-cyanophenyl)-5-hydroxy-3-methyl-1H-pyrazol-1-yl)pyridin-3-yl) methanesulfonamide]
100 to 1000	< 100	< 100	Cc1nn(-c2ccc(S(C)(=O)=O)cn2)c(O)c1-c1ccc(Cl)cc1 [Compound 1, 4-(4-chlorophenyl)-3-methyl-1-(5-(methylsulfonyl)pyridin-2-yl)-1H-pyrazol-5-ol]
100 to 1000	< 100	< 100	Cc1nn(-c2ccc(C(=O)C(C)C)cn2)c(O)c1-c1ccc(C#N)cc1 [Compound 10, 4-(5-hydroxy-1-(5-isobutyrylpyridin-2-yl)-3-methyl-1H-pyrazol-4-yl)benzonitrile]
100 to 1000	< 100	< 100	Cc1nn(-c2ccc(S(C)(=O)=NC#N)cn2)c(O)c1-c1ccc(C#N)cc1 (centres unmarked) [Compound 58, N-((6-(4-(4-cyanophenyl)-5-hydroxy-3-methyl-1H-pyrazol-1-yl)pyridin-3-yl)(methyl)(oxo)-λ^6-sulfaneylidene)cyanamide]
–	< 100	< 100	Cc1nn(-c2cc(C3CC3)c(S(C)(=O)=O)cn2)c(O)c1-c1ccc(C#N)cc1 [Compound 53, 4-(1-(4-cyclopropyl-5-(methylsulfonyl)pyridin-2-yl)-5-hydroxy-3-methyl-1H-pyrazol-4-yl)benzonitrile]
–	< 100	100 to 1000	Cc1nn(-c2ccc(-n3cccn3)cn2)c(O)c1-c1ccc(C#N)cc1 [Compound 63, 4-(1-(5-(1H-pyrazol-1-yl)pyridin-2-yl)-5-hydroxy-3-methyl-1H-pyrazol-4-yl)benzonitrile]
–	< 100	< 100	Cc1cc(-n2nc(C)c(-c3ccc(C#N)cc3)c2O)ncc1NS(C)(=O)=O [Compound 39, N-(6-(4-(4-cyanophenyl)-5-hydroxy-3-methyl-1H-pyrazol-1-yl)-4-methylpyridin-3-yl)methanesulfonamide]
–	< 100	< 100	Cc1nn(-c2ccc(S(=N)(=O)c3ccccc3)cn2)c(O)c1-c1ccc(C#N)cc1 (centres unmarked) [Compound 20, 4-(5-hydroxy-3-methyl-1-(5-(phenylsulfonimidoyl)pyridin-2-yl)-1H-pyrazol-4-yl)benzonitrile]
–	< 100	< 100	Cc1nn(-c2ccc([S@@](=N)(=O)C(C)C)cn2)c(O)c1-c1ccc(C#N)cc1 [Compound 41, (S)-4-(5-hydroxy-3-methyl-1-(5-(S-isopropylsulfonimidoyl)pyridin-2-yl)-1H-pyrazol-4-yl)benzonitrile]
–	100 to 1000	100 to 1000	Cc1nn(-c2ccc(NC(=O)N3CCNCC3)cn2)c(O)c1-c1ccc(C#N)cc1 [Compound 32, N-(6-(4-(4-cyanophenyl)-5-hydroxy-3-methyl-1H-pyrazol-1-yl)pyridin-3-yl)piperazine-1-carboxamide hydrochloride]
